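Method: 48-hour compound exposure of cells in 96-well plates, five concentrations, linear interpolation of endpoints. GI50 is the concentration that inhibits growth by half. TGI denotes the concentration required for complete inhibition of growth.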
Legend:
Test in all cases: growth of human tumour cells (NCI), 48 h
SK-OV-3 ovarian = tested on: SK-OV-3 ovarian
SF-268 CNS = tested on: SF-268 CNS
SF-539 CNS = tested on: SF-539 CNS
HOP-62 NSCLC = tested on: HOP-62 NSCLC
SR leukemia = tested on: SR leukemia
HCT-15 colon = tested on: HCT-15 colon
SNB-19 CNS = tested on: SNB-19 CNS
UACC-62 melanoma = tested on: UACC-62 melanoma
MCF7 breast = tested on: MCF7 breast
U251 CNS = tested on: U251 CNS
NCI-H23 lung = tested on: NCI-H23 lung
SW-620 colon = tested on: SW-620 colon
TK-10 renal = tested on: TK-10 renal
A498 renal = tested on: A498 renal
MDA-MB-435 = tested on: MDA-MB-435
OVCAR-3 ovarian = tested on: OVCAR-3 ovarian
K-562 leukemia = tested on: K-562 leukemia
MDA-MB-231 breast = tested on: MDA-MB-231 breast
MOLT-4 leukemia = tested on: MOLT-4 leukemia
HL-60(TB) leukemia = tested on: HL-60(TB) leukemia
CAKI-1 renal = tested on: CAKI-1 renal
NCI-H522 lung = tested on: NCI-H522 lung
DU-145 prostate = tested on: DU-145 prostate
UACC-257 melanoma = tested on: UACC-257 melanoma
ACHN renal = tested on: ACHN renal
OVCAR-8 ovarian = tested on: OVCAR-8 ovarian
COLO 205 colon = tested on: COLO 205 colon
SK-MEL-5 melanoma = tested on: SK-MEL-5 melanoma
CCRF-CEM leukemia = tested on: CCRF-CEM leukemia
HCC-2998 colon = tested on: HCC-2998 colon
RXF 393 renal = tested on: RXF 393 renal
OVCAR-5 ovarian = tested on: OVCAR-5 ovarian
UO-31 renal = tested on: UO-31 renal
HT29 colon = tested on: HT29 colon
LOX IMVI melanoma = tested on: LOX IMVI melanoma
IGROV1 ovarian = tested on: IGROV1 ovarian
MALME-3M melanoma = tested on: MALME-3M melanoma
M14 melanoma = tested on: M14 melanoma
SK-MEL-28 melanoma = tested on: SK-MEL-28 melanoma
SK-MEL-2 melanoma = tested on: SK-MEL-2 melanoma
A549 NSCLC = tested on: A549 NSCLC
HCT-116 colon = tested on: HCT-116 colon
KM12 colon = tested on: KM12 colon
PC-3 prostate = tested on: PC-3 prostate
HOP-92 NSCLC = tested on: HOP-92 NSCLC
SN12C renal = tested on: SN12C renal
NCI/ADR-RES ovarian = tested on: NCI/ADR-RES ovarian
HS 578T breast = tested on: HS 578T breast
NCI-H460 lung = tested on: NCI-H460 lung
EKVX NSCLC = tested on: EKVX NSCLC
OVCAR-4 ovarian = tested on: OVCAR-4 ovarian
T-47D breast = tested on: T-47D breast
RPMI-8226 leukemia = tested on: RPMI-8226 leukemia
SF-295 CNS = tested on: SF-295 CNS
NCI-H226 lung = tested on: NCI-H226 lung
SNB-75 CNS = tested on: SNB-75 CNS
786-0 renal = tested on: 786-0 renal
BT-549 breast = tested on: BT-549 breast

Compound: COc1ccc(/C=N/NC(=O)c2[nH]c3ccc(Br)cc3c2-c2ccccc2)o1
- GI50 (SK-OV-3 ovarian): 0.455 µM
- TGI (SK-OV-3 ovarian): 40.2 µM
- GI50 (SF-268 CNS): 0.5 µM
- TGI (SF-268 CNS): 27.8 µM
- GI50 (SF-539 CNS): 0.072 µM
- TGI (SF-539 CNS): 0.237 µM
- GI50 (HOP-62 NSCLC): 0.467 µM
- TGI (HOP-62 NSCLC): 20.8 µM
- GI50 (SR leukemia): 0.114 µM
- TGI (SR leukemia): 19.1 µM
- GI50 (HCT-15 colon): 0.219 µM
- TGI (HCT-15 colon): 3.04 µM
- GI50 (SNB-19 CNS): 0.323 µM
- TGI (SNB-19 CNS): 19.7 µM
- GI50 (UACC-62 melanoma): 0.122 µM
- TGI (UACC-62 melanoma): 13.9 µM
- GI50 (MCF7 breast): 0.0907 µM
- TGI (MCF7 breast): 11.1 µM
- GI50 (U251 CNS): 0.309 µM
- TGI (U251 CNS): 11 µM
- GI50 (NCI-H23 lung): 0.3 µM
- TGI (NCI-H23 lung): 9.9 µM
- GI50 (SW-620 colon): 0.196 µM
- TGI (SW-620 colon): 28.3 µM
- GI50 (TK-10 renal): 2.26 µM
- TGI (TK-10 renal): 37.1 µM
- GI50 (A498 renal): 16.7 µM
- TGI (A498 renal): 37.3 µM
- GI50 (MDA-MB-435): 0.112 µM
- TGI (MDA-MB-435): 0.303 µM
- GI50 (OVCAR-3 ovarian): 0.284 µM
- TGI (OVCAR-3 ovarian): 2.84 µM
- GI50 (K-562 leukemia): 0.055 µM
- TGI (K-562 leukemia): > 72.2 µM
- GI50 (MDA-MB-231 breast): 0.148 µM
- TGI (MDA-MB-231 breast): 2.19 µM
- GI50 (MOLT-4 leukemia): 0.0599 µM
- TGI (MOLT-4 leukemia): 21.9 µM
- GI50 (HL-60(TB) leukemia): 0.0748 µM
- TGI (HL-60(TB) leukemia): 0.265 µM
- GI50 (CAKI-1 renal): 0.295 µM
- TGI (CAKI-1 renal): 21 µM
- GI50 (NCI-H522 lung): 0.0216 µM
- TGI (NCI-H522 lung): 0.0592 µM
- GI50 (DU-145 prostate): 0.307 µM
- TGI (DU-145 prostate): 14.3 µM
- GI50 (UACC-257 melanoma): 0.258 µM
- TGI (UACC-257 melanoma): 23.2 µM
- GI50 (ACHN renal): 0.203 µM
- TGI (ACHN renal): 20.7 µM
- GI50 (OVCAR-8 ovarian): 0.143 µM
- TGI (OVCAR-8 ovarian): 1.57 µM
- GI50 (COLO 205 colon): 0.196 µM
- TGI (COLO 205 colon): 0.377 µM
- GI50 (SK-MEL-5 melanoma): 0.163 µM
- TGI (SK-MEL-5 melanoma): 0.391 µM
- GI50 (CCRF-CEM leukemia): 0.136 µM
- TGI (CCRF-CEM leukemia): > 55.2 µM
- GI50 (HCC-2998 colon): 0.382 µM
- TGI (HCC-2998 colon): 14.3 µM
- GI50 (RXF 393 renal): 1.1 µM
- TGI (RXF 393 renal): 17.8 µM
- GI50 (OVCAR-5 ovarian): 0.161 µM
- TGI (OVCAR-5 ovarian): 17.6 µM
- GI50 (UO-31 renal): 0.47 µM
- TGI (UO-31 renal): 21.5 µM
- GI50 (HT29 colon): 0.0666 µM
- GI50 (LOX IMVI melanoma): 0.0354 µM
- TGI (LOX IMVI melanoma): 12.3 µM
- GI50 (IGROV1 ovarian): 0.314 µM
- TGI (IGROV1 ovarian): 16.7 µM
- GI50 (MALME-3M melanoma): 0.202 µM
- TGI (MALME-3M melanoma): 17.7 µM
- GI50 (M14 melanoma): 0.299 µM
- TGI (M14 melanoma): 15.3 µM
- GI50 (SK-MEL-28 melanoma): 0.418 µM
- TGI (SK-MEL-28 melanoma): 15.8 µM
- GI50 (SK-MEL-2 melanoma): 0.134 µM
- TGI (SK-MEL-2 melanoma): 9.22 µM
- GI50 (A549 NSCLC): 0.251 µM
- TGI (A549 NSCLC): > 49.9 µM
- GI50 (HCT-116 colon): 0.108 µM
- TGI (HCT-116 colon): 1.1 µM
- GI50 (KM12 colon): 0.311 µM
- TGI (KM12 colon): 4.84 µM
- GI50 (PC-3 prostate): 0.386 µM
- TGI (PC-3 prostate): > 34.4 µM
- GI50 (HOP-92 NSCLC): 0.953 µM
- TGI (HOP-92 NSCLC): 10.1 µM
- GI50 (SN12C renal): 0.125 µM
- TGI (SN12C renal): 8.31 µM
- GI50 (NCI/ADR-RES ovarian): 0.0533 µM
- TGI (NCI/ADR-RES ovarian): 2.59 µM
- GI50 (HS 578T breast): 0.57 µM
- TGI (HS 578T breast): 21 µM
- GI50 (NCI-H460 lung): 0.248 µM
- TGI (NCI-H460 lung): 1.59 µM
- GI50 (EKVX NSCLC): 0.968 µM
- TGI (EKVX NSCLC): 29.4 µM
- GI50 (OVCAR-4 ovarian): 0.265 µM
- TGI (OVCAR-4 ovarian): 29.3 µM
- GI50 (T-47D breast): 2.95 µM
- TGI (T-47D breast): 20.6 µM
- GI50 (RPMI-8226 leukemia): 0.161 µM
- TGI (RPMI-8226 leukemia): > 32.5 µM
- GI50 (SF-295 CNS): 0.165 µM
- TGI (SF-295 CNS): 2.88 µM
- GI50 (NCI-H226 lung): 0.276 µM
- TGI (NCI-H226 lung): 7.95 µM
- GI50 (SNB-75 CNS): 0.165 µM
- TGI (SNB-75 CNS): 3.53 µM
- GI50 (786-0 renal): 0.353 µM
- TGI (786-0 renal): 13.7 µM
- GI50 (BT-549 breast): 0.177 µM
- TGI (BT-549 breast): 0.667 µM
